Reference: publication PMC6364417, “Kinase inhibitor library screening identifies synergistic drug combinations effective in sensitive and resistant melanoma cells” (Journal of Experimental & Clinical Cancer Research : CR, 2019)

How the values were obtained:
Test in all cases: Kinase inhibitor library screening, PrestoBlue cell viability, 1 or 10 μM, 72 h
501Mel cells (parental) = settings: 501Mel Parental, in %
Procedure, shortened: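 Two concentrations of every kinase inhibitor were tested on each melanoma line and its resistant counterparts, and cell survival was quantified by PrestoBlue against untreated wells.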

[1] = system: 501Mel-GP cells (Dabrafenib-resistant); settings: 501Mel GP, in %
[2] = system: 501Mel-XP cells (Vemurafenib-resistant); settings: 501Mel XP, in %
A375 cells (parental) = settings: A375 Parental; for cell viability (kinase inhibitor library screening): in %
[3] = system: A375-GP cells (Dabrafenib-resistant); settings: A375 GP; for cell viability (kinase inhibitor library screening): in %
[4] = system: A375-XP cells (Vemurafenib-resistant); settings: A375 XP; for cell viability (kinase inhibitor library screening): in %
IGR37 cells (parental) = settings: IGR37 Parental, in %
[5] = system: IGR37-GP cells (Dabrafenib-resistant); settings: IGR37 GP
[6] = system: IGR37-XP cells (Vemurafenib-resistant); settings: IGR37 XP; for cell viability (kinase inhibitor library screening): in %

Row | Compound | cell viability (kinase inhibitor library screening) (501Mel cells (parental); 1μΜ) | cell viability (kinase inhibitor library screening) (501Mel cells (parental); 10μΜ) | cell viability (kinase inhibitor library screening) ([1]; 1μΜ) | cell viability (kinase inhibitor library screening) ([1]; 10μΜ) | cell viability (kinase inhibitor library screening) ([2]; 1μΜ) | cell viability (kinase inhibitor library screening) ([2]; 10μΜ) | cell viability (kinase inhibitor library screening) (A375 cells (parental); 1μΜ) | cell viability (kinase inhibitor library screening) (A375 cells (parental); 10μΜ) | cell viability (kinase inhibitor library screening) ([3]; 1μΜ) | cell viability (kinase inhibitor library screening) ([3]; 10μΜ) | cell viability (kinase inhibitor library screening) ([4]; 10μΜ) | cell viability (kinase inhibitor library screening) (IGR37 cells (parental); 1μΜ) | cell viability (kinase inhibitor library screening) (IGR37 cells (parental); 10μΜ) | cell viability (kinase inhibitor library screening) ([5]; 1μΜ, in %) | cell viability (kinase inhibitor library screening) ([5]; 10μΜ, in %) | cell viability (kinase inhibitor library screening) ([6]; 1μΜ) | cell viability (kinase inhibitor library screening) ([6]; 10μΜ) | other results
1 | Cc1cc(C)c(/C=C2\C(=O)Nc3ccccc32)[nH]1 [Semaxanib (SU5416)] | 100.0 | 90.0 | 104.6 | 82.4 | 89.0 | 70.1 | 104.2 | 98.1 | 106.4 | 85.4 | 97.5 | 100.1 | 97.0 | 92.4 | 88.3 | 100.1 | 61.3 | 
2 | CNC(=O)c1cc(Oc2ccc(NC(=O)Nc3ccc(Cl)c(C(F)(F)F)c3)cc2)ccn1 [Sorafenib (Nexavar)] | 97.8 | 53.0 | 104.7 |  | 96.9 | 23.2 |  | 44.5 | 80.9 | 22.0 | 16.4 | 96.8 | 60.6 | 102.7 | 41.3 | 106.1 | 16.7 | cell viability (kinase inhibitor library screening) ([4]; 1μΜ): 95.0
3 | CN1CCN(c2nc(C3=C(c4c[nH]c5ccccc45)C(=O)NC3=O)c3ccccc3n2)CC1 [Sotrastaurin (AEB071)] |  |  |  |  |  |  |  |  |  |  |  |  |  |  |  |  |  | Cell viability in kinase inhibitor library screening, 501Mel Parental, 10μΜ (501Mel cells (parental); 10μΜ, 72 h): 95.7; Cell viability in kinase inhibitor library screening, 501Mel GP, 1μΜ ([1]; 1μΜ, 72 h): 105.7; Cell viability in kinase inhibitor library screening, 501Mel GP, 10μΜ ([1]; 10μΜ, 72 h): 91.8; Cell viability in kinase inhibitor library screening, 501Mel XP, 1μΜ ([2]; 1μΜ, 72 h): 96.4; Cell viability in kinase inhibitor library screening, 501Mel XP, 10μΜ ([2]; 10μΜ, 72 h): 77.9; Cell viability in kinase inhibitor library screening, A375 Parental, 1μΜ (A375 cells (parental); 1μΜ, 72 h): 108.3; Cell viability in kinase inhibitor library screening, A375 GP, 10μΜ ([3]; 10μΜ, 72 h): 88.5; Cell viability in kinase inhibitor library screening, A375 XP, 1μΜ ([4]; 1μΜ, 72 h): 102.8; Cell viability in kinase inhibitor library screening, A375 XP, 10μΜ ([4]; 10μΜ, 72 h): 96.9; Cell viability in kinase inhibitor library screening, IGR37 Parental, 1μΜ (IGR37 cells (parental); 1μΜ, 72 h): 108.5; Cell viability in kinase inhibitor library screening, IGR37 Parental, 10μΜ (IGR37 cells (parental); 10μΜ, 72 h): 95.3; Cell viability in kinase inhibitor library screening, IGR37 GP, 10μΜ ([5]; 10μΜ, 72 h): 89.1%; Cell viability in kinase inhibitor library screening, IGR37 GP, 1μΜ ([5]; 1μΜ, 72 h, in %): 96.8; Cell viability in kinase inhibitor library screening, IGR37 XP, 10μΜ ([6]; 10μΜ, 72 h): 78.1%
4 | CCN(CC)CCNC(=O)c1c(C)[nH]c(/C=C2\C(=O)Nc3ccc(F)cc32)c1C.O=C(O)C[C@H](O)C(=O)O [Sunitinib Malate (Sutent)] | 99.9 | 0.237 |  | 1.4 | 92.7 | -0.452 | 104.0 | 67.2 |  | 72.3 | 68.1 | 97.5 | 68.0 | 87.4 | 7.9 | 100.5 | 1.2 | 
